Measured values from US12133907B2, “Lipophilic third generation retinoid” (Actera Ingredients, Inc., priority 2021, dated 2024).
Like-named read-outs stand apart in the source and are kept apart here.

Tests used:
[1] = Adapalene oleyl ester dissolved in squalane (premix properties); type: physicochemical; details: for physical form of the premix in squalane: 20% by weight in squalane
From the text: The adapalene ester can be formulated in a premix composition with a non-polar lipophilic carrier at even higher concentrations of the adapalene ester. Typically, the concentration of the adapalene ester in the premix composition will be at least about 10% by weight, and the weight ratio of adapalene ester to lipophilic carrier is from about 1:9 to about 3:7. The premix composition may in the form of a homogeneous liquid solution or single phase amorphous solid.
Adapalene oleyl ester was dissolved in squalane at a concentration of 20% by weight. […] Rather, the entire premix mass formed a soft amorphous solid paste. The concentrated 20% adapalene oleyl ester in squalane remains a single homogenous soft solid paste with a melting temperature range of 30-35° C. This is a suitable temperature range for use in the manufacturing of finished cosmetics, which are usually manufactured at 30-80° C. This 20% composition can itself melt when in contact with the skin (33° C.). A combination of adapalene oleyl ester with squalane at high concentration, minimum 20%, provides an advantageous skin beauty treatment that can target acne prone skin with 20% or more adapalene ester, which is not possible with highly insoluble pure adapalene.

[2] = cited from earlier work
[3] = Dissolution of lauryl adapalene in MCT oil (caprylic/capric triglyceride) and persistence of the solution; type: physicochemical
Description: Approximately 5 grams of lauryl adapalene solids were dissolved in 95 grams of liquid MCT oil (caprylic/capric triglyceride), by heating the mixture to 60° C. for fifteen minutes.

Q: What does the source list for `CCCCCCCC/C=C\CCCCCCCCOC(=O)c1ccc2cc(-c3ccc(OC)c(C45CC6CC(CC(C6)C4)C5)c3)ccc2c1` [Adapalene oleyl ester, adapalene oleyl ester]?
A: physical form of the premix in squalane [1]: formed a homogenous amorphous solid; physical form of the premix in squalane ([1]; listed as adapalene C18-1 ester): forms a homogenous amorphous solid; concentration dissolved in squalane ([1]; squalane premix): 20 % by weight

Q: What does the source list for `COc1ccc(-c2ccc3cc(C(=O)O)ccc3c2)cc1C12CC3CC(CC(C3)C1)C2` [Adapalene, 6-(3-(1-adamantyl)-4-methoxyphenyl)-2-naphthoic acid]?
A: solubility in ethanol [2]: sparingly soluble; solubility in oil or water [2]: not oil or water soluble; solubility in oil or water ([2]; listed as adapalene): insoluble in oil or water

Q: With `CCCCCCCCCCCCOC(=O)c1ccc2cc(-c3ccc(OC)c(C45CC6CC(CC(C6)C4)C5)c3)ccc2c1` [lauryl adapalene] as the compound, how does the “time the solution remained in liquid form” value ([3]; 5% wt/wt solution in MCT oil, room temperature) read?
A: The value was “more than one week”.

Q: And the “concentration of active agent dissolved in liquid MCT oil” value ([3]; 5 g solids in 95 g MCT oil, heated to 60° C. for fifteen minutes)?
A: The value was 5 % wt/wt.
